Assay results from PubChem BioAssay (NCI).
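Growth conditions: 96-well plates. Treatment: test compound, 48 hours, 5 concentrations. Analysis: linear interpolation between bracketing concentrations; unreached endpoints set to highest concentration. Abbreviation: GI50, concentration required for 50% inhibition of growth. The concentration for full growth arrest is given as TGI.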

Legend:
Test in all cases: inhibition of tumour cell growth, NCI panel, 48 h
SF-268 CNS = tested on: SF-268 CNS
SK-MEL-28 melanoma = tested on: SK-MEL-28 melanoma
UACC-257 melanoma = tested on: UACC-257 melanoma
SK-MEL-5 melanoma = tested on: SK-MEL-5 melanoma
OVCAR-5 ovarian = tested on: OVCAR-5 ovarian
UO-31 renal = tested on: UO-31 renal
SF-539 CNS = tested on: SF-539 CNS
NCI-H23 lung = tested on: NCI-H23 lung
ACHN renal = tested on: ACHN renal
U251 CNS = tested on: U251 CNS

| SMILES | GI50 (SF-268 CNS) [µM] | TGI (SF-268 CNS) [µM] | GI50 (SK-MEL-28 melanoma) [µM] | TGI (SK-MEL-28 melanoma) [µM] | GI50 (UACC-257 melanoma) [µM] | TGI (UACC-257 melanoma) [µM] | GI50 (SK-MEL-5 melanoma) [µM] | TGI (SK-MEL-5 melanoma) [µM] | GI50 (OVCAR-5 ovarian) [µM] | TGI (OVCAR-5 ovarian) [µM] | GI50 (UO-31 renal) [µM] | TGI (UO-31 renal) [µM] | GI50 (SF-539 CNS) [µM] | TGI (SF-539 CNS) [µM] | GI50 (NCI-H23 lung) [µM] | TGI (NCI-H23 lung) [µM] | GI50 (ACHN renal) [µM] | TGI (ACHN renal) [µM] | GI50 (U251 CNS) [µM] | TGI (U251 CNS) [µM] |
| --- | --- | --- | --- | --- | --- | --- | --- | --- | --- | --- | --- | --- | --- | --- | --- | --- | --- | --- | --- | --- |
| C=CCc1c2c(c(OC)c3ccoc13)C(=O)/C(=C/c1ccccc1OC)O2 | 3.73 | 60.4 | 5.21 | > 100 | 6.41 | > 100 | 3.91 | 92 | 3.57 | > 100 | 4.98 | > 100 | 5.45 | 72.8 | 2.88 | 14.7 | 4.33 | > 100 | 3.53 | > 100 |
| CC1(C)SC2C(NC(=O)C(N)c3ccccc3)C(=O)N2C1C(=O)O (stereo not given) |  | > 100 |  | > 100 |  | > 100 |  | > 100 |  | > 100 |  | > 100 |  | > 100 |  | > 100 |  | > 100 |  | > 100 |
| CCN(CC)c1ccc(C(=C2C=CC(=[N+](CC)Cc3cccc(S(=O)(=O)O)c3)C=C2)c2ccc(N(CC)Cc3cccc(S(=O)(=O)O)c3)cc2)cc1 | 4.12 | > 79.4 | 15.6 | > 100 | 21 | > 100 | 10.1 | 24.1 | 20.8 | > 100 | 16.3 | > 91.9 | 3.57 | 23.3 | 5.14 | 80.2 | 9.48 | > 68.5 | 3.58 | > 100 |
| CCN(CC)S(=O)(=O)c1ccc(OC)c(Nc2ncc(-c3ccccc3)o2)c1 | > 22.3 | > 25 | > 25 | > 25 | > 25 | > 25 | > 12.2 | > 25 | > 21.7 | > 25 | > 12.9 | > 25 | > 17.3 | > 25 | > 22.7 | > 25 | > 22.7 | > 25 | > 18.7 | > 25 |
| COc1ccc(C(=O)/C=C/c2ccc(/C=C/c3cc(OC)c(OC)c(OC)c3)cc2)cc1 | 6.08 | 88.3 | 16.9 | > 100 | 9 | > 100 | 3.39 | 19.2 | 34.1 | > 100 | 4.64 | > 100 | 12.2 | 78.3 | 5.39 | 65.9 | 11.6 | > 100 | 5.09 | 54.7 |
| CCCCOc1ccc(NC(N)=Nc2ccc(Cl)cc2)cc1 |  | 12.9 |  | 26.7 |  | 5.21 |  | 2.1 |  | 19.9 |  | 9.6 |  | 6.52 |  | 17.3 |  | 12.7 |  | 21.5 |
| ClCCn1c(CCl)nc2ccc(Cl)cc21 | 1.22 | 2.95 | 1.68 | 3.49 | 1.62 | 3.49 | 0.176 | 0.329 | 1.21 | 2.77 | 1.57 | 3.11 | 1.44 | 2.82 | 0.252 | 0.832 | 1.35 | 2.72 | 1.16 | 2.7 |
